Assay results from article PMC3174134, “Lucanthone and Its Derivative Hycanthone Inhibit Apurinic Endonuclease-1 (APE1) by Direct Protein Binding” (PLoS ONE, 2011).

Legend:
tubulin = test: Tubulin stability in U251 1-5 whole cell extracts, Western blot; conditions: lucanthone 2.5-100 µM; CRT at 200 µM
Procedure: (§1) Total purified protein concentration was determined by the ratio of A280/A260. 250 ng of APE1 treated with lucanthone or hycanthone (0.05–100 µM) for 2 h at 37°C in final volume of 30 µl were mixed with an equal volume of gel loading buffer (0.001% bromophenol blue, 4% SDS, 10% 2-ME, 20% glycerol, and 125 mM Tris pH 6.8) and denatured at 95°C for 5 min. Total protein concentration in cell extracts was determined using the Bradford assay (BioRad, Hercules, CA) and 25 µg of total protein from soluble or insoluble cell fractions were mixed with an equal volume of gel loading buffer (0.001% bromophenol blue, 4% SDS, 10% 2-ME, 20% glycerol, and 125 mM Tris pH 6.8) and denatured at 95°C for 5 min. This mixture was separated by SDS-PAGE (4% stacking, 7.5% resolving gel) for 2–3 h at 40 mA on a BioRad MiniPROTEAN II Electrophoresis Cell. To detect proteins, proteins were transferred onto a trans-Blot nitrocellulose membrane (0.45 µm; BioRad) overnight at 4°C at 15 mA in standard Tris-Glycine buffer containing 20% ethanol. […] Chemi-luminescence was developed using an ECL kit according to the manufacturer's instructions and detected by exposing the blot to HyperfilmECL for 30 s–3 min. […]

APE1 [1] = target: T1, APE1 (Homo sapiens, UniProt P27695); test: APE1 cleavage in whole cell extracts of U251 1-5 APE1 overexpressor clone, Western blot with protease inhibitor cocktail; design: the full length APE1 protein was successfully expressed and purified; made in house; host or cells: E. coli BL21/DE3; conditions: U251 1-5 whole cell extracts, 2 h, 37°C
T1 sequence (P27695 whole entry): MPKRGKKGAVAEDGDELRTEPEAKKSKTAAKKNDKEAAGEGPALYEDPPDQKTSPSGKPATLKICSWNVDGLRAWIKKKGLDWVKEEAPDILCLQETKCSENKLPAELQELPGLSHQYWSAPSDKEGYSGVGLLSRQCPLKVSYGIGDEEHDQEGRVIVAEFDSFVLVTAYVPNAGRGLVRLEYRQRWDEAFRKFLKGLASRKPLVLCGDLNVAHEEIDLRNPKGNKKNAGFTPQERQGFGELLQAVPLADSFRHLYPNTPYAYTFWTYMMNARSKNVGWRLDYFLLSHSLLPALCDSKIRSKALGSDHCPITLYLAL
Procedure: as §1

APE1 [2] = target: T1, APE1; test: MALDI-TOF analysis of APE1 degradation; design: the full length APE1 protein was successfully expressed and purified; made in house; host or cells: E. coli BL21/DE3; conditions: 100 µM drug
Procedure: 100 nM of APE1 protein was treated with 100 µM of lucanthone, hycanthone or CRT at 37°C for 2 h and 24 h and analyzed on sinipinic acid matrix on a Voyager-DE STR (Applied Biosystems) MALDI-TOF instrument at the Proteomics facility at SUNYSB in a linear mode.

Structure (SMILES): O=C(O)c1cc2cccc([N+](=O)[O-])c2[nH]1 [CRT0044876, 7-Nitroindole-2-carboxylic acid]
- Effect on tubulin protein (tubulin): some shift in its migration
- Concentration causing cleavage of APE1 (APE1 [1]): 200 µM
- Time at which APE1 degradation is seen by MALDI (APE1 [2]): 24 h
- APE1 protein fragments by MALDI-TOF (APE1 [2]; 37°C, 2 or 24 h): much less cleavage of APE1
- Full length 35.5 kDa APE1 peak by MALDI-TOF (APE1 [2]; 37°C, 24 h): still an intact 35.5 kDa peak
